Results: patent US20240216444A1, “DESIGNED BACTERIAL COMPOSITIONS” (Seres Therapeutics, Inc., priority 2015, published 2024)

Tests used:
[1] = system: bile salt hydrolase (BSH) activity on conjugated bile acids (gCA, tCA, gCDCA, tCDCA); assay: Bile salt hydrolase (BSH) activity screen using TLC; type: biochemical
[2] = system: HDAC enzymes (HeLa nuclear extract); assay: HDAC inhibition activity in supernatants of cultures grown in different carbon sources; settings: 25% HDAC inhibition as cut off
Experimental: To determine whether the HDAC inhibition was affected by the type and level of carbon source available to a bacterial species, HDAC inhibition by supernatants derived from a selection of bacterial species used in DBCs was determined. In these experiments, bacteria were grown in a variety of carbon sources including mono-, di-, polysaccharides, and porcine mucine. Briefly, 600 μL bacterial cultures in peptone/yeast extract medium (PY) supplemented with 0.5% of the selected carbon sources were inoculated in 96 deep well plates, grown for 4 days, then the microbial cells were pelleted by centrifugation, and 15 μL of the culture medium (supernatant) was used for the HDAC assay with HeLa nuclear extract as described above. Because HDAC activity is reduced at low pH (Latham et al. 2012 Nucl Acid Res 40:4794-803) and the microbial cultures had pH as low as 5, to ensure that the final pH of the assay was not reduced by the addition of supernatant, 10 μL of a 1M Tris pH 8 solution was added per well to bring the final Tris buffer concentration to 75 mM. Thus, assays were performed with 15 μL supernatant, 10 μL 1M Tris pH 8, 25 μL of assay buffer and 50 μL of diluted HeLa nuclear extract, which were preincubated for 30 minutes prior to the addition of developing reagent. Luminescence was measured after 30 minutes.

[3] = system: HSDH activity (7-, 3- or 12-hydroxyl groups) on cholic, chenodeoxycholic, deoxycholic and lithocholic acid; assay: LC-MS screen for hydroxysteroid dehydrogenase (HSDH) activity; type: biochemical; settings: LC-MS
[4] = SCFA profile of bacterial culture supernatants by GC-MS; settings: GC-MS of culture supernatants
Source text: The same bacterial culture supernatants used for HDAC inhibition assays described supra were submitted to GC-MS analysis to determine which SCFAs underlie the observed inhibition of HDAC. The method employed (MSOmics, Denmark) measures formate, acetate, propionate, butyrate, isobutyrate (2-methyl-propionate), isovalerate (3-methyl-butyrate), valerate (pentanoate), 4-methyl-pentanoate, caproate (hexanoate), and heptanoate. […] Numbers in Table 11 indicate detected SCFA concentration. B=butyrate; P=propionate; IB=isobutyrate, and IV=isovalerate.

[5] = system: bile salt hydrolase (BSH) activity on conjugated bile acids; assay: LC-MS screen for bile salt hydrolase (BSH) activity
Experimental: To conduct the assay, briefly, bacteria were grown on permissive agar media plates for 24 to 48 hours to generate sufficient biomass to carry out assays. The bacterial lawns were resuspended in PBS to create a homogenous suspension that was then used for the BSH assay. To assay for BSH activity, bacterial suspensions were incubated with two separate mixtures of four distinct conjugated bile acids, each at concentration of 150 μg/ml, for 4 hours at 37° C. under anaerobic conditions. The reaction mixture was then extracted with an equal volume of acetonitrile, spun down to pellet bacteria and the supernatant filtered through a 0.2 μM filter to generate a sample for LC-MS analysis. Bile acids were determined using an Agilent 1260 HPLC coupled to a Bruker Compact qTOF MS. Samples were run on a bidentate C18 column using an acetonitrile:water buffer system to separate bile acids which were then ionized in negative mode and identified using a qTOF-MS. BSH activity was determined by the formation of deconjugated bile acid products that were verified by comparison to known standards and quantified, if necessary, using standard curves.

[6] = system: 7α-dehydroxylation of cholic acid and chenodeoxycholic acid; assay: LC-MS screen for 7α-dehydroxylation (7α-OH) activity; type: biochemical; settings: LC-MS
[7] = system: C. difficile carbon sources; assay: Carbon source utilization, 87 carbon sources in three base media, OD600 and acid production (Example 3B); type: cell-based; parameters: key: “+” and “w” refer to “positive” and “weak” utilization of the carbon source, respectively; “+” and “w” refer to “positive” and “weak” utilization of the carbon source, respectively
Source text: Three C. difficile strains and 12 non-C. difficile bacterial strains were profiled using a panel of carbon sources. As used herein, unless otherwise indicated, carbon sources includes all sources tested as growth substrates in the experiments herein. The three C. difficile strains were Clostridium difficile ATCC 9689, Clostridium difficile ATCC 43593, and Clostridium difficile ATCC 43255, all of which are available from the American Type Culture Collection (ATCC).
Growth of the strains was tested on 87 different carbon sources in a 96-well plate format. The panel contained 34 carbon sources reported to be utilized by C. difficile in the literature (Hafiz and Oakley. 1976 J Med Microbiol 9:129-36; Wilson and Perini. 1988 Infection and Immunity 56:2610-14; Bergey and Holt. Bergey's Manual of Determinative Bacteriology. Baltimore: Williams & Wilkins, 1994; Sebaihia et al. 2006 Nature Genetics 38:779-786) including amino acids, mono-, di-, tri- and polysaccharides, glucoside and sugar alcohols. Carbon sources were added at 0.5% into three different base media (Base medium 1 SSNC composition: beef extract 1 g/L, yeast extract 2 g/L, bacto soytone 6 g/L, NaCl 4 g/L, KH2PO4 5.44 g/L, MgSO4 2 mM, CaCl2 1 mM, MnCl2 0.1 mM, cysteine hydrochloride 0.25 g/L, hemin 10 mg/L, menadione 1 mg/L, MOPS 6.3 g/L, pH 7; Base medium 2 SPOSCR composition: beef extract 1 g/L, yeast extract 2 g/L, bacto soytone 6 g/L, NaCl 4 g/L, KH2PO4 5.44 g/L, MgSO4 2 mM, CaCl2) 1 mM, MnCl2 0.1 mM, cysteine hydrochloride 0.25 g/L, hemin 10 mg/L, menadione 1 mg/L, MOPS 8.4 g/L, NaHCO3 0.4%, pH 7; Base medium 3 YCFA: casitone 10 g/L, yeast extract 2.5 g/L, cysteine hydrochloride 1 g/L, hemin 10 mg/L, ATCC vitamin solution 10 mL/L, ATCC trace element solution 10 mL/L, K2HPO4 0.45 g/L, KH2PO4 0.45 g/L, (NH4)2SO4 0.9 g/L, MgSO4×7H2O 90 mg/L, CaCl2) 90 mg/L, acetic acid 33 mM, propionic acid 9 mM, isobutyric acid 1 mM, isovaleric acid 1 mM, valeric acid 1 mM, pH 7).
Positive growth was scored by measuring optical density at 600 nm and comparing it to growth in base medium without an added carbon source. For two, base media acid production was also scored by measuring optical density at 558 nm of pH-indicator phenol red mixed with spent medium from each culture.

## Clostridium glycolicum
[1]
  BSH activity on gCDCA by TLC: no BSH activity
[2]
  HDAC inhibition when alternative nutrient sources are tested: positive
[3]
  HSDH 3a: + (‘+’ indicates greater than 50-fold increase in levels of product bile acid, suggesting strong activity)
  HSDH 7a: + (‘+’ indicates greater than 50-fold increase in levels of product bile acid, suggesting strong activity)
  HSDH 12a: −
[4]
  SCFAs produced: produced isovalerate, isobutyrate and propionate
12 strains, eight carbon sources
  indole test: positive
F. plautii: each of the 8 carbon sources, C. glycolicum: all C-sources except glucose, pectin, FOS/inulin
  colour of culture in indole test: turned red
[5]; substrate gCA
  BSH gCA: + (‘+’ indicates greater than 50-fold increase in levels of product bile acid, suggesting strong activity)
[5]; substrate gCDCA
  BSH gCDCA: + (‘+’ indicates greater than 50-fold increase in levels of product bile acid, suggesting strong activity)
[5]; substrate t-aMCA
  BSH t-aMCA: + (‘+’ indicates greater than 50-fold increase in levels of product bile acid, suggesting strong activity)
[5]; substrate t-bMCA
  BSH t-bMCA: + (‘+’ indicates greater than 50-fold increase in levels of product bile acid, suggesting strong activity)
[5]; substrate tCA
  BSH tCA: + (‘+’ indicates greater than 50-fold increase in levels of product bile acid, suggesting strong activity)
[5]; substrate tCDCA
  BSH tCDCA: + (‘+’ indicates greater than 50-fold increase in levels of product bile acid, suggesting strong activity)
[6]; substrate CA
  7a Dehydrox CA: −
[6]; substrate CDCA
  7a Dehydrox CDCA: −
[7]; Citrus pectin
  utilization of carbon source Citrus pectin: +
[7]; NAG (N-acetylglucosamine)
  utilization of carbon source NAG: +
[7]; alanine
  utilization of carbon source alanine: w
[7]; arginie
  utilization of carbon source arginie: w
[7]; aspartic acid
  utilization of carbon source aspartic acid: +
[7]; formate
  utilization of carbon source formate: +
[7]; fructose
  utilization of carbon source fructose: +
[7]; glucose
  utilization of carbon source glucose: +
[7]; glycogen
  utilization of carbon source glycogen: w
[7]; guar
  utilization of carbon source guar: w
[7]; isoleucine
  utilization of carbon source isoleucine: +
[7]; leucine
  utilization of carbon source leucine: +
[7]; ornithine
  utilization of carbon source ornithine: w
[7]; polygalacturonate
  utilization of carbon source polygalacturonate: +
[7]; propanediol
  utilization of carbon source propanediol: w
[7]; ribose
  utilization of carbon source ribose: +
[7]; serine
  utilization of carbon source serine: +
[7]; sialic acid
  utilization of carbon source sialic acid: w
[7]; threonine
  utilization of carbon source threonine: +
[7]; tryptophan
  utilization of carbon source tryptophan: +
[7]; valine
  utilization of carbon source valine: +
[7]; α-ketoglutarate
  utilization of carbon source α-ketoglutarate: +
